# What was measured:
# [1] = system: Staphylococcus aureus ATCC 33591 (DRCC 019, MRSA); test: MIC by broth microdilution, Staphylococcus aureus 019 MRSA; format: cell-based; details: Staphylococcus aureus DRCC 019 (ATCC 33591), read-out: Antimicrobial Screening (MIC) Staphylococcus aureus 019 MRSA
# Procedure: (§1) Minimum Inhibiton Concentrations (MICs) were determined by broth microdilution technique as per the guidelines prescribed in the fifth edition of Approved Standards, NCCLS document M7-A5 Vol 20-No 2, 2000 Villinova, Pa.
# (§2) Initial stock solution of the test compound was prepared in DMSO. Subsequent two fold dilutions were carried out in sterile Mueller Hinton Broth (Difco) (MHB).
# (§3) Frozen cultures stocks were inoculated into 50 ml sterile MHB in 250 ml Erlyn Meyer flasks. • Composition of MHB is as follows: • Beef Extract Powder—2.0 grams/litre • Acid Digest of Casein—17.5 grams/litre • Soluble Starch—1.5 grams/litre • Final pH 7.3±0.1
# (§4) Flasks were incubated for 4 to 5 hours at 35° C. on a rotary shaker at 150 rpm. Inoculum was prepared by diluting the culture in sterile MHB to obtain a turbidity of 0.5 McFarland standard. This corresponds to 1-2×10^8 CFU/ml. The stock was further diluted in sterile broth to obtain 1-2×10^6 CFU/ml. 50 μl of the above diluted inoculum was added from 1-10 wells. The plates were incubated overnight at 37° C.
# [2] = system: Staphylococcus aureus ATCC 49951 (DRCC 213, Smith S); test: MIC by broth microdilution, Staphylococcus aureus 213 Smith S; format: cell-based; details: ATCC49951, Staphylococcus aureus DRCC 213 (ATCC 49951), read-out: Antimicrobial Screening (MIC) Staphylococcus aureus 213 Smith S
# Procedure: as §1, §2, §3, §4
# [3] = system: Staphylococcus aureus ATCC 29213 (DRCC 035, S); test: MIC by broth microdilution, Staphylococcus aureus 035 S; format: cell-based; details: ATCC29213, Staphylococcus aureus DRCC 035 (ATCC 29213), read-out: Antimicrobial Screening (MIC) Staphylococcus aureus 035 S
# Procedure: as §1, §2, §3, §4
# [4] = system: Enterococcus faecalis ATCC 29212 (DRCC 034, S); test: MIC by broth microdilution, Enterococcus sp 034 S; format: cell-based; details: ATCC29212, Enterococcus DRCC 034 (E. faecalis ATCC 29212), read-out: Antimicrobial Screening (MIC) Enterococcus sp 034 S
# Procedure: as §1, §2, §3, §4
# [5] = system: Enterococcus faecalis NCTC 12201 (DRCC 153, R); test: MIC by broth microdilution, Enterococcus sp 153 R; format: cell-based; details: NCTC12201, Enterococcus DRCC 153 (E. faecalis NCTC 12201), read-out: Antimicrobial Screening (MIC) Enterococcus sp 153 R
# Procedure: as §1, §2, §3, §4
# [6] = system: Enterococcus faecium NCTC 12202 (DRCC 154, R); test: MIC by broth microdilution, Enterococcus sp 154 R; format: cell-based; details: NCTC12202, Enterococcus DRCC 154 (E. faecium NCTC 12202), read-out: Antimicrobial Screening (MIC) Enterococcus sp 154 R
# Procedure: as §1, §2, §3, §4
# [7] = system: Mycobacterium MTCC006; test: MIC by broth microdilution, Mycobacterium MTCC006; format: cell-based; details: read-out: Antimicrobial Screening (MIC) Mycobacterium MTCC006
# Procedure: as §1, §2, §3, §4
# [8] = system: Salmonella TA97; test: MIC by broth microdilution, Salmonella TA97; format: cell-based; details: read-out: Antimicrobial Screening (MIC) Salmonella TA97
# Procedure: as §1, §2, §3, §4
SMILES,MIC [1] [µg/mL],MIC [2] [µg/mL],MIC [3] [µg/mL],MIC [4] [µg/mL],MIC [5] [µg/mL],MIC [6] [µg/mL],MIC [7] [µg/mL],MIC [8] [µg/mL],melting point [°C]
"COC(=S)NCc1cn(-c2cc(F)c(-n3ccc(C#N)c3)c(F)c2)nn1 [Example 8, {1-[4-(3-Cyano-pyrrol-1-yl)-3,5-difluoro-phenyl]-1H-[1,2,3]triazol-4-ylmethyl}-thiocarbamic acid O-methyl ester]",0.5,0.5,1,0.5,0.5,0.5,32,32,
"COC(=S)NCc1cn(-c2ccc(-n3ccc(C=O)c3)cc2)nn1 [Example 2, {1-[4-(3-Formyl-pyrrol-1-yl)-phenyl]-1H-[1,2,3]triazol-4-ylmethyl}-thiocarbamic acid O methyl ester]",,,,,,,,,160 to 162
"COC(=S)NCc1cn(-c2ccc(-n3cncn3)c(F)c2)nn1 [Example 20, [1-(3-Fluoro-4-[1,2,4]triazol-1-yl-phenyl)-1H-[1,2,3]triazol-4-yl-methyl]-thiocarbamic acid O-methyl ester]",8,16,16,32,32,32,16,32,179
"COC(=S)NCc1cn(-c2ccc(-n3cnc(CO)c3)c(F)c2)nn1 [Example 27, {1-[3-Fluoro-4-(4-hydroxymethyl-imidazol-1-yl)-phenyl]-1H-[1,2,3]triazol-4-ylmethyl}-thiocarbamic acid O-methyl ester]",1,1,1,2,1,2,16,32,179
"CC(=S)NCc1cn(-c2ccc(-n3ccnc3)c(F)c2)nn1 [Example 24, N-[1-(3-Fluoro-4-imidazol-1-yl-phenyl)-1H-[1,2,3]triazol-4-ylmethyl]-thioacetamide]",,,,,,,,,185
"CC(=O)NCc1cn(-c2ccc(-n3cncn3)c(F)c2)nn1 [Example 25, N-[1-(3-Fluoro-4-[1,2,4]triazol-1-yl-phenyl)-1H-[1,2,3]triazol-4-ylmethyl]-acetamide]",,,,,,,,,223
"CC(=O)NCc1cn(-c2ccc(-n3cccc3)c(F)c2)nn1 [Example 22, N-[1-(3-Fluoro-4-pyrrol-1-yl-phenyl)-1H-[1,2,3]triazol-4-ylmethyl]-acetamide]",,,,,,,,,210 to 215
"COC(=S)NCc1cn(-c2ccc(-n3cccc3)cc2)nn1 [Example 1, [1-(4-Pyrrol-1-yl-phenyl)-1H-[1,2,3]triazol-4-ylmethyl]-thiocarbamic acid O-methyl ester]",,,,,,,,,150
"COC(=S)NCc1cn(-c2cc(F)c(-n3ccnc3)c(F)c2)nn1 [Example 9, [1-(3,5-Difluoro-4-imidazol-1-yl-phenyl)-1H-[1,2,3]triazol-4-ylmethyl]-thiocarbamic acid O-methyl ester]",1,1,1,2,1,2,4,32,180
"COC(=S)NCc1cn(-c2ccc(-n3ccnc3)c(F)c2)nn1 [Example 10, [1-(3-Fluoro-4-imidazol-1-yl-phenyl)-1H-[1,2,3]triazol-4-ylmethyl]-thiocarbamic acid O-methyl ester]",,,,,,,,,165 to 167

# From patent US20060270628A1, “Antiinfective 1,2,3-triazole derivatives, process for their preparation and pharmaceutical compositions containing them” (priority 2003, published 2006)
